Measured values from patent publication EP4653443A1, “STEREOISOMER AND DEUTERATED DERIVATIVE OF PYRAZOLOQUINAZOLINE COMPOUND AND USE” (Phil Rivers Technology Co., Ltd, priority 2023, dated 2024).
Where two headings read alike, the source gives them in different places.

Columns and labels:
HCT116 cells = assay type: in vivo; details: for TGI: test endpoint (PG-D22), TGITV
Protocol: • Balb/c nude mice: SPF grade, female, 6-8 weeks old, weighing 16-20 g, purchased from SPF (Beijing) Biotechnology Co., Ltd. • HCT116 cells: purchased from ATCC;
HCT116 cells were cultured in RPMI-1640 medium containing inactivated 10% fetal bovine serum, 100 U/mL penicillin, 100 µg/mL streptomycin and 2 mM glutamine in an incubator at 37°C with 5% CO2. Once the cells reached confluence, they were subcultured into new flasks. The tumor cells in the logarithmic growth phase were used for inoculation of tumors in vivo.
The tumor cells were washed twice with PBS, and the cell concentration was adjusted to 5×10^7/ml. The resuspended tumor cells were inoculated subcutaneously in the right flank of the experimental animals at 100 µL/mouse, i.e. 5×10^6/mouse. When the tumor grew to an average tumor volume of […], the animals were grouped for drug administration according to the tumor volume, with a total of 7 groups, 8 animals in each group. The first day of group drug administration was recorded as PG-D0. Table 25. Administration Schedule
During the administration, the health status of the animals is monitored.
From grouping until the end of the experiment, mouse body weight was measured every 3 days using an electronic balance.
From grouping until the end of the experiment, the long and short diameters of the mouse tumors were measured every 3 days using an electronic vernier caliper, and the volume was calculated using the formula: Volume (TV) = 0.5 × long diameter × (short diameter)^2.
RTV is the relative tumor volume, that is, the ratio of the tumor volume after administration to that before administration.
Graphpad prism 8 statistical software was used to perform statistical analysis of tumor volume and tumor weight among groups using the One-Way ANOVA test (homogeneity of variance), and p < 0.05 was considered statistically significant.

PSN1 cells = assay type: in vivo; details: for TGI: endpoint (day 31), TGITV; for mice died: 8 mice per group
Protocol: • M-NSG mice: SPF grade, female, 6-8 weeks old, weighing 16-20 g, purchased from Shanghai Model Organisms Technology Co., Ltd. • PSN1 cells: purchased from ATCC;
PSN1 cells were cultured in an incubator at 37°C and 5% CO2 in RPMI-1640 medium containing 10% inactivated fetal bovine serum. Cells were subcultured by passaging into new culture dishes every 2 to 3 days when they reach confluent.
• 8.2.3.1 PSN1 cells in the logarithmic growth phase were taken and resuspended in PBS. The cell suspension was inoculated subcutaneously into the right flank of M-NSG mice using a 1mL syringe (inoculated cell count: 5E6/mouse + 30%M). The survival status of the mice and the subcutaneous tumor formation were observed every other day. • 8.2.3.2 On the day of grouping, mice were randomly divided into 8 groups with 8 mice in each group based on the average tumor volume (~190 mm^3) and mouse body weight; • 8.2.3.3 The mice were dosed according to the grouping scheme, all by intragastric administration. […]. The hair condition and status of the mice were observed, and the body weight and tumor size were recorded twice a week to calculate TGI%. • 8.2.3.4 Grouping of Test Animals
When the average tumor volume reached ~ 190 mm^3, mice with moderate individual tumor volume were selected for inclusion in the group. The animals were randomly assigned to experimental groups according to tumor volume and mouse weight, with 8 mice in each group. Administration started one day after grouping.
TV = 1/2 × a × b2 [formula] wherein: a represents the long diameter of the tumor; b represents the short diameter of the tumor.
RTV = Vt /Vinitial × 100(%) [formula]
T/C(%) = (TRTV/CRTV) × 100% [formula]
TGI = [1−(TVt/TVinitial)/([…])] × 100% [formula]
wherein, TVt represents the tumor volume of the treatment group at each measurement; TVinitial represents the tumor volume of the treatment group at the time of grouping and administration; CVt represents the tumor volume of the control group at each measurement; CVinitial represents the tumor volume of the control group at the time of grouping and administration.
Body Weight Change Rate = (BWfinal-BWinitial) / BWinitial × 100% [formula] wherein, BWinitial represents the animal body weight at the time of grouping and administration; BWfinal represents the animal body weight at each measurement.
The original data of measurement and observation must be recorded. The analysis and processing are based on the original data, and the results are presented as mean and standard error of the mean (Mean ± SEM). T-test is used to analyze the difference in tumor volume between the control group and the treatment group. P < 0.05 indicates statistical significance.

[1] = Pharmacokinetic study in mice (IV and PO, plasma LC-MS/MS)
Protocol: The objective of this study is to investigate the pharmacokinetic properties of the disclosed compounds after tail vein intravenous injection (IV) and oral administration (PO) in female CD1 mice. Plasma was sampleed at 0, 0.083, 0.25, 0.5, 1, 2, 4, 7 and 24 hours post-dosing, and the drug concentrations in plasma at different time points were detected by LC-MS/MS, and the relevant pharmacokinetic parameters were calculated using WinNonlin software.
Experimental female CD1 mice were purchased from SPF Laboratory Animal Technology Co., Ltd., aged 6-8 weeks with body weights of 20-30 g. The female CD1 mice were housed in a controlled environment (set temperature at 20-25°C and relative humidity at 40-70%). A 12-hour light/12-hour dark cycle was maintained unless interrupted by study-related events.
Compound solutions are prepared in an ultra-clean workbench and prepared immediately before use, and mixed thoroughly prior to use to ensure formulation homogeneity.
Vehicle composition: 10% DMSO+90% (20%SBE-β-CD) Table 4. Doses Used in IV Administration
Vehicle composition: 10% DMSO + 90% (20%SBE-β-CD) Table 5. Doses Used in PO Administration
Vehicle composition: 0.5% MC + 1% Tween-20 Table 6. Doses Used in PO Administration
Prior to the experiment, the animals were randomly grouped. The mice were fasted for 12 hours before drug administration, and free feeding was resumed 4 hours after administration.
All blood samples were transferred into plastic microcentrifuge tubes containing anticoagulant (EDTA-K2), and then centrifuged at 4000 g for 5 minutes at 4°C. The supernatant was transferred into a microcentrifuge tube without anticoagulant, and the plasma was stored in a -75±15°C refrigerator until detection.
The blood samples were purified by HPLC and analyzed by mass spectrometry to obtain the plasma concentration-time curve of the disclosed compound.
The pharmacokinetic parameters were estimated by non-compartmental model method (calculated by Phoenix WinNonlin software).

[2] = 30 mg/kg p.o. q.d. 10 consecutive days
[3] = 60 mg/kg p.o. q.d. 10 consecutive days
[4] = 60 mg/kg p.o. QD*6 times, during administration

| Structure (SMILES) | TGI (HCT116 cells; [2]) | TGI (HCT116 cells; [3]) | Mouse Mortality Rate (PSN1 cells; 90 mg/kg p.o. QD*6 times) | mouse death (PSN1 cells; 90 mg/kg p.o. QD*6 times) | TGI (PSN1 cells; 90 mg/kg p.o. QD*6 times) | body weight loss (PSN1 cells; 90 mg/kg p.o. QD*6 times, throughout the period) | F ([1]; PO 10 mg/kg vs IV 10 mg/kg) | Mouse Mortality Rate (PSN1 cells; 60 mg/kg p.o. QD*6 times) | mice died (PSN1 cells; 60 mg/kg p.o. QD*6 times) | body weight loss (PSN1 cells; [4]) | TGI (PSN1 cells; 60 mg/kg p.o. QD*6 times) | mice died (HCT116 cells; 60 mg/kg p.o. q.d., 8 mice per group) | F ([1]; PO 5 mg/kg vs IV 2 mg/kg) |
| --- | --- | --- | --- | --- | --- | --- | --- | --- | --- | --- | --- | --- | --- |
| [2H]C1([2H])CN(c2ccc(OC(F)(F)F)c(Nc3ncc4c(n3)-c3c(c(C(N)=O)nn3CCO)CC4)c2)C([2H])([2H])[C@H]2CCCN21 [CPD04] | 7.6% | 30.5% | 0% | no mouse death was found | 40% | no body weight loss was observed | 42.8% |  |  |  |  |  |  |
| [2H]C1([2H])N(C)C([2H])([2H])C([2H])([2H])N(c2ccc(OC(F)(F)F)c(Nc3ncc4c(n3)-c3c(c(C(N)=O)nn3CCO)CC4)c2)C1([2H])[2H] [CPD06] | 42.4% | 75.6% |  |  |  |  | 43.1% | 0% | No mice died | ≤ 15% | 53% |  |  |
| CN1CCN(c2ccc(OC(F)(F)F)c(Nc3ncc4c(n3)-c3c(c(C(N)=O)nn3CCO)CC4)c2)CC1 [NMS-P937, onvansertib, reference compound] | 44.1% | 64.2% |  |  |  |  | 27.1% | 50% | half | decreased severely |  | three | 20.5% |
